Laboratory results as given in ChEMBL document CHEMBL1828564, “Design, synthesis and biological evaluation of novel 1,2,3,4-tetrahydroisoquinoline-3-carboxylic acid derivatives as aminopeptidase N/CD13 inhibitors” (Bioorg Med Chem, 2011).
Where a SMILES comes first, the peptide text is derived from it. [ ]: non-standard residue; d: D form. The star is where a group is joined. Hyp = O=C(O)[C@@H]1C[C@@H](O)CN1; Tic = O=C(O)[C@@H]1Cc2ccccc2CN1; Phg = N[C@H](C(=O)O)c1ccccc1; NHOH = ON*

Legend:
Aminopeptidase N [1] = target: T1, Aminopeptidase N (Sus scrofa, UniProt P15145); test: Inhibition of pig kidney microsome aminopeptidase N using L-Leu-p-nitroanilide substrate
T1 sequence (P15145 whole entry): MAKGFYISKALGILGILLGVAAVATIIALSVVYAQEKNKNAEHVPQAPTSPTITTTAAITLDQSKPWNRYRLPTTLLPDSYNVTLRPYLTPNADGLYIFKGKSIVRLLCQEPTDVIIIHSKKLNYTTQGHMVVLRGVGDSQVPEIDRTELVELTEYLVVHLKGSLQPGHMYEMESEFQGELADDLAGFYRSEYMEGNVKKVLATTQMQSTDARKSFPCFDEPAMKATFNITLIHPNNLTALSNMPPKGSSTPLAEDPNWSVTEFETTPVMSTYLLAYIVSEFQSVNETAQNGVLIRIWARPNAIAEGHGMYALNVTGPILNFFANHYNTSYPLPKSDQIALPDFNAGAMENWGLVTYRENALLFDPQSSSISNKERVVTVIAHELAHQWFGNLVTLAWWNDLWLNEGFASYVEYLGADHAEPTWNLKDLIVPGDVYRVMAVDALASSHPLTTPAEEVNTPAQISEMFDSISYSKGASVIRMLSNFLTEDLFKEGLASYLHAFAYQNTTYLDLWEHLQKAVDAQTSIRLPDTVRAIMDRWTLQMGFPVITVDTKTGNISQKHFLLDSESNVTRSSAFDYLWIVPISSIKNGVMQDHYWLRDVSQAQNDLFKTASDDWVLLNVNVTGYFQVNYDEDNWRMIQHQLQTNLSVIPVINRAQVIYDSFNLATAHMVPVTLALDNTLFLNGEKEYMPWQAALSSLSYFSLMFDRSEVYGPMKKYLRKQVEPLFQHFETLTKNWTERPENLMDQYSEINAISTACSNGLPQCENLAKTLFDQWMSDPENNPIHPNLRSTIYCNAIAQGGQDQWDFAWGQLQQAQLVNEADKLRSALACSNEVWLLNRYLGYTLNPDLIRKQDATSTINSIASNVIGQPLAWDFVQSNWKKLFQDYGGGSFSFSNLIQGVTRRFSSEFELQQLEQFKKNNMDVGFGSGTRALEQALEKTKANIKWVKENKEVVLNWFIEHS

[2] = target: 72 kDa type IV collagenase (Homo sapiens, UniProt P08253); test: Inhibition of MMP2 after 30 mins
72 kDa type IV collagenase, sequence (P08253 whole entry): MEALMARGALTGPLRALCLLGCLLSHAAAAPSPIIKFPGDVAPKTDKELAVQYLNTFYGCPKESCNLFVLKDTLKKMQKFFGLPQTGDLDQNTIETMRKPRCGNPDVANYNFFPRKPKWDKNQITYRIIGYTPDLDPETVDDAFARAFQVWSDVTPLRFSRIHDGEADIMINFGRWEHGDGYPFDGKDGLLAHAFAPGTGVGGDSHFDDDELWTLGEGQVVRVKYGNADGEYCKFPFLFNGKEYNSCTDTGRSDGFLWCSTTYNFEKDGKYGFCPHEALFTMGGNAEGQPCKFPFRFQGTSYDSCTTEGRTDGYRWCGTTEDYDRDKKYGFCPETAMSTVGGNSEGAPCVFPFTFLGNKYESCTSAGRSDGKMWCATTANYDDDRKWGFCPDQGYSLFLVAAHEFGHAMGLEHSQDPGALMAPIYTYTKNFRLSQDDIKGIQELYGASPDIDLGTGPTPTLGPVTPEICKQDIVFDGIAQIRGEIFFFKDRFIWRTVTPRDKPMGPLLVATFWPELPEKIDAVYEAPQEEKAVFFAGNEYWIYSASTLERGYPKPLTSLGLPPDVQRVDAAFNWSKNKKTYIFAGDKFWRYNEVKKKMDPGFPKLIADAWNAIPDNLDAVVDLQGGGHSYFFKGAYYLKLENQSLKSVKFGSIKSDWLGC

Aminopeptidase N [3] = target: Aminopeptidase N (Homo sapiens, UniProt P15144); test: Inhibition of aminopeptidase N in human ES2 cells assessed as L-Leu-p-nitroanilide hydrolysis; format: cell-based
Aminopeptidase N (Homo sapiens, UniProt P15144), sequence (P15144 whole entry): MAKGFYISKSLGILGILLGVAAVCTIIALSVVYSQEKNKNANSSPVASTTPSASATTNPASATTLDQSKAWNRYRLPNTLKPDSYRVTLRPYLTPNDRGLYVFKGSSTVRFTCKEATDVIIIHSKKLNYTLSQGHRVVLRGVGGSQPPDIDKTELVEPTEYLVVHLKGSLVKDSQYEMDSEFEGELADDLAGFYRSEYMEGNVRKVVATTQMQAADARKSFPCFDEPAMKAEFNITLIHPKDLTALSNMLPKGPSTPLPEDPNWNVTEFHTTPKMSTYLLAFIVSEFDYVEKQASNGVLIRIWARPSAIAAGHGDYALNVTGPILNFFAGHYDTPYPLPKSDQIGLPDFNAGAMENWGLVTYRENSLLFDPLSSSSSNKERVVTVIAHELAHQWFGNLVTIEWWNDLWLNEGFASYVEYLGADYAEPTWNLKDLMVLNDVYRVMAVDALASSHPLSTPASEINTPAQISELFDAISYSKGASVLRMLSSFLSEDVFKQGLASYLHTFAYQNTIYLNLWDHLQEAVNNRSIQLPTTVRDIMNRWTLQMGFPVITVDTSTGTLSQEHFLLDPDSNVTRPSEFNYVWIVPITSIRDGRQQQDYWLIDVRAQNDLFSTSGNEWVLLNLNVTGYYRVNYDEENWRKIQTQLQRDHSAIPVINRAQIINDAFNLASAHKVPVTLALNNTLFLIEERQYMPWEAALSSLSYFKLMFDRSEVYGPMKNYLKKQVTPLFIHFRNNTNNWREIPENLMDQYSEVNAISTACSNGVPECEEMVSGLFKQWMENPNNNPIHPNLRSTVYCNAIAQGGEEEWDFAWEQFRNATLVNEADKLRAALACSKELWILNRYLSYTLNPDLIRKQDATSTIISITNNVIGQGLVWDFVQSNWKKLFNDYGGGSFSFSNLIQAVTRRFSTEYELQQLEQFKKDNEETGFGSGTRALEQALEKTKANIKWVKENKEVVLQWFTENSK

MDA-MB-231 = test: Antiproliferative activity against human MDA-MB-231 cells after 48 hrs by MTT assay; format: functional, cell-based; conditions: MDA-MB-231, 48 h
cells = conditions: Homo sapiens, ES-2, 48 h
Description: Antiproliferative activity against human ES2 cells after 48 hrs by MTT assay

IC50 (Aminopeptidase N [1]; read-out: IC50) [µM]	IC50 ([2]; read-out: IC50) [µM]	other results	Compound
20.4		IC50 [2]: Not Active	Cl.O=C(CN1C(=O)CC[C@H](NC(=O)[C@@H]2Cc3ccccc3CN2)C1=O)NO
37.1	517		O=C(CCNC(=O)[C@@H]1Cc2ccccc2CN1)NO
44.5	252		O=C(CCCNC(=O)[C@@H]1Cc2ccccc2CN1)NO
43.4		IC50 [2]: Not Active	Cl.O=C(N[C@@H](Cc1cc2ccccc2[nH]1)C(=O)NO)[C@@H]1Cc2ccccc2CN1
83.8	463		C[C@H](NC(=O)[C@@H]1Cc2ccccc2CN1)C(=O)NO (H-[Tic]-Ala-{NHOH})
21.7	249		O=C(CNC(=O)[C@@H]1Cc2ccccc2CN1)NO (H-[Tic]-Gly-{NHOH})
	672	IC50 (Aminopeptidase N [1]): Not Active	CC[C@H](C)[C@H](NC(=O)[C@@H]1Cc2ccccc2CN1)C(=O)NO.Cl (H-[Tic]-Ile-{NHOH})
481		IC50 [2]: Not Active	CC(C)C[C@H](NC(=O)[C@H](CC(C)C)NC(=O)[C@@H]1Cc2ccccc2CN1)C(=O)NO.Cl (H-[Tic]-Leu-Leu-{NHOH})
465	657		CC(C)C[C@H](NC(=O)[C@@H]1Cc2ccccc2CN1)C(=O)N[C@@H](Cc1ccccc1)C(=O)NO (H-[Tic]-Leu-Phe-{NHOH})
27.5	836		CC(C)C[C@H](NC(=O)[C@@H]1Cc2ccccc2CN1)C(=O)NO (H-[Tic]-Leu-{NHOH})
8.77	166		CSCC[C@H](NC(=O)[C@@H]1Cc2ccccc2CN1)C(=O)NO (H-[Tic]-Met-{NHOH})
555		IC50 [2]: Not Active	CC(C)C[C@H](NC(=O)[C@H](Cc1ccccc1)NC(=O)[C@@H]1Cc2ccccc2CN1)C(=O)NO.Cl (H-[Tic]-Phe-Leu-{NHOH})
435		IC50 [2]: Not Active	Cl.O=C(N[C@@H](Cc1ccccc1)C(=O)N[C@@H](Cc1ccccc1)C(=O)NO)[C@@H]1Cc2ccccc2CN1 (H-[Tic]-Phe-Phe-{NHOH})
12.8	940		O=C(N[C@@H](Cc1ccccc1)C(=O)NO)[C@@H]1Cc2ccccc2CN1 (H-[Tic]-Phe-{NHOH})
104	157		O=C(NO)[C@@H]1CCCN1C(=O)[C@@H]1Cc2ccccc2CN1 (H-[Tic]-Pro-{NHOH})
40.2	268		O=C(N[C@@H](CO)C(=O)NO)[C@@H]1Cc2ccccc2CN1 (H-[Tic]-Ser-{NHOH})
46.6	201		C[C@@H](O)[C@H](NC(=O)[C@@H]1Cc2ccccc2CN1)C(=O)NO (H-[Tic]-Thr-{NHOH})
9.39	540		O=C(N[C@@H](Cc1ccc(O)cc1)C(=O)NO)[C@@H]1Cc2ccccc2CN1 (H-[Tic]-Tyr-{NHOH})
36.6	307		CC(C)[C@H](NC(=O)[C@@H]1Cc2ccccc2CN1)C(=O)NO (H-[Tic]-Val-{NHOH})
	276	IC50 (Aminopeptidase N [1]): Not Active	Cl.O=C(NO)[C@@H]1C[C@@H](O)CN1C(=O)[C@@H]1Cc2ccccc2CN1 (H-[Tic]-[Hyp]-{NHOH})
6.28	393	IC50 (Aminopeptidase N [3]): 32.7 µM; inhibition (Aminopeptidase N [3]): Dose-dependent effect; IC50 (MDA-MB-231): 591 µM; IC50 (cells): 174 µM	O=C(N[C@H](C(=O)NO)c1ccccc1)[C@@H]1Cc2ccccc2CN1 (H-[Tic]-[Phg]-{NHOH})
		IC50 (MDA-MB-231): 753 µM; IC50 (cells): 142 µM	CC(C)C[C@H](NC(=O)[C@@H](O)[C@H](N)Cc1ccccc1)C(=O)O [UBENIMEX]
